The supplement of paper PMC10307832

Experiments:
Assay in all cases: relative viability (nuclei count vs DMSO), 5 days (fraction); higher = more cells survive
GW-2580 + Linsitinib = compound: COC1=CC=C(C=C1)COC2=C(C=C(C=C2)CC3=CN=C(N=C3N)N)OC [GW-2580] + C[C@]1(O)C[C@@H](c2nc(-c3ccc4ccc(-c5ccccc5)nc4c3)c3c(N)nccn32)C1 [Linsitinib] (partner 1 µM)
Method in brief: (§1)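 Lung cancer cell lines in 1536-well plates were dosed by pin tool the day after seeding, either with one drug alone or with a fixed anchor-drug dose plus five library-drug doses (not always all listed) in √10 steps. After 5 days, cells were fixed and their nuclei stained in one step (final 0.05% Triton X-100, 1% formaldehyde, 1 ug/ml Hoechst), then counted on 4× images. Relative viability is the nuclei count in treated wells divided by that in vehicle wells. Values are medians of duplicate plates.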

GW-2580 + Alpelisib = compound: COC1=CC=C(C=C1)COC2=C(C=C(C=C2)CC3=CN=C(N=C3N)N)OC [GW-2580] + Cc1nc(NC(=O)N2CCC[C@H]2C(N)=O)sc1-c1ccnc(C(C)(C)C(F)(F)F)c1 [Alpelisib] (partner 2 µM)
Method in brief: as §1

GW-2580 + Dasatinib = compound: COC1=CC=C(C=C1)COC2=C(C=C(C=C2)CC3=CN=C(N=C3N)N)OC [GW-2580] + Cc1nc(Nc2ncc(C(=O)Nc3c(C)cccc3Cl)s2)cc(N2CCN(CCO)CC2)n1 [Dasatinib] (partner 0.075 µM)
Method in brief: as §1

GW-2580 + Pemetrexed = compound: COC1=CC=C(C=C1)COC2=C(C=C(C=C2)CC3=CN=C(N=C3N)N)OC [GW-2580] + Nc1nc2[nH]cc(CCc3ccc(C(=O)N[C@@H](CCC(=O)O)C(=O)O)cc3)c2c(=O)[nH]1 [Pemetrexed] (partner 0.2 µM)
Method in brief: as §1

Fedratinib + Lapatinib = compound: Cc1cnc(Nc2ccc(OCCN3CCCC3)cc2)nc1Nc1cccc(S(=O)(=O)NC(C)(C)C)c1 [Fedratinib] + CS(=O)(=O)CCNCc1ccc(-c2ccc3ncnc(Nc4ccc(OCc5cccc(F)c5)c(Cl)c4)c3c2)o1 [Lapatinib] (partner 2 µM)
Method in brief: as §1

| Cell Line | relative viability (GW-2580 + Linsitinib; first compound 0.08 µM) | relative viability (GW-2580 + Linsitinib; first compound 0.8 µM) | relative viability (GW-2580 + Linsitinib; first compound 2.53 µM) | relative viability (GW-2580 + Linsitinib; first compound 8 µM) | relative viability (GW-2580 + Alpelisib; first compound 0.08 µM) | relative viability (GW-2580 + Alpelisib; first compound 0.8 µM) | relative viability (GW-2580 + Alpelisib; first compound 2.53 µM) | relative viability (GW-2580 + Alpelisib; first compound 8 µM) | relative viability (GW-2580 + Dasatinib; first compound 0.08 µM) | relative viability (GW-2580 + Dasatinib; first compound 0.8 µM) | relative viability (GW-2580 + Dasatinib; first compound 2.53 µM) | relative viability (GW-2580 + Dasatinib; first compound 8 µM) | relative viability (GW-2580 + Pemetrexed; first compound 0.08 µM) | relative viability (GW-2580 + Pemetrexed; first compound 0.8 µM) | relative viability (GW-2580 + Pemetrexed; first compound 2.53 µM) | relative viability (GW-2580 + Pemetrexed; first compound 8 µM) | relative viability (Fedratinib + Lapatinib; first compound 0.1 µM) | relative viability (Fedratinib + Lapatinib; first compound 0.3162 µM) | relative viability (Fedratinib + Lapatinib; first compound 1 µM) |
| --- | --- | --- | --- | --- | --- | --- | --- | --- | --- | --- | --- | --- | --- | --- | --- | --- | --- | --- | --- |
| NCI-H2085 | 0.818 | 1.13 | 0.978 | 0.879 | 1.1 | 0.924 | 0.924 | 0.792 | 0.277 | 0.217 | 0.25 | 0.258 | 0.963 | 1.01 | 0.885 | 0.838 | 0.709 | 0.766 | 0.538 |
| NCI-H1793 | 0.93 | 0.934 | 0.814 | 0.824 | 0.659 | 0.679 | 0.634 | 0.775 | 0.415 | 0.451 | 0.355 | 0.399 | 0.982 | 1.08 | 0.649 | 0.844 | 0.628 | 0.61 | 0.311 |
| LC-2-ad | 0.817 | 0.874 | 0.84 | 0.786 | 0.934 | 0.932 | 0.875 | 0.87 | 0.715 | 0.771 | 0.737 | 0.55 | 0.268 | 0.285 | 0.253 | 0.278 | 1.06 | 0.983 | 0.104 |
| COR-L 105 | 1.03 | 0.807 | 0.929 | 1.01 | 0.91 | 1.28 | 0.946 | 0.902 | 0.314 | 0.373 | 0.28 | 0.342 | 1.26 | 1.08 | 1.21 | 0.962 | 0.297 | 0.379 | 0.336 |
| NCI-H1355 | 0.823 | 0.884 | 0.694 | 0.809 | 0.816 | 0.937 | 0.694 | 0.883 | 0.831 | 0.779 | 0.468 | 0.649 | 1.09 | 1.13 | 0.914 | 0.965 | 0.734 | 1.04 | 0.962 |
| H3255 | 0.98 | 1.03 | 1.08 | 0.796 | 0.659 | 0.846 | 0.686 | 0.676 | 0.287 | 0.436 | 0.345 | 0.281 | 0.553 | 0.609 | 0.554 | 0.552 | 0.216 | 0.231 | 0.218 |
| NCI-H1993 | 0.757 | 0.735 |  | 0.714 | 0.684 | 0.677 |  | 0.704 | 0.611 | 0.606 | 0.524 | 0.568 | 0.601 | 0.703 | 0.54 | 0.576 | 0.725 | 0.82 | 0.608 |
| NCI-H1734 | 0.899 | 0.839 | 0.895 | 0.911 | 0.697 | 0.761 | 0.654 | 0.671 | 0.459 | 0.497 | 0.456 | 0.447 | 0.404 | 0.409 | 0.425 | 0.408 | 1.18 | 1.1 | 0.183 |
| HOP-62 | 1.05 | 0.953 | 0.877 | 0.982 | 0.914 | 1.01 | 0.694 | 1.07 | 0.756 | 0.728 | 0.639 | 0.697 | 0.394 | 0.285 | 0.303 | 0.288 | 0.969 | 0.88 | 0.904 |
| LOU-NH91 | 0.956 | 0.972 | 0.877 | 1.02 | 0.677 | 0.756 | 0.635 | 0.688 | 0.555 | 0.719 | 0.517 | 0.553 | 0.349 | 0.381 | 0.399 | 0.412 | 0.732 | 0.798 | 0.638 |
| NCI-H2228 | 0.88 | 0.664 | 0.79 | 0.633 | 0.91 | 0.886 | 0.627 | 0.775 | 0.557 | 0.551 | 0.441 | 0.488 | 0.408 | 0.306 | 0.338 | 0.327 | 1.04 | 1.07 | 0.22 |
| PC-14 | 1.12 | 0.987 | 0.934 | 1.03 | 0.995 | 1.14 | 0.864 | 0.906 | 0.347 | 0.281 | 0.228 | 0.218 | 0.14 | 0.136 | 0.137 | 0.127 | 0.261 | 0.351 | 0.249 |
| NCI-H1437 | 1.08 | 1.3 | 0.942 | 0.728 | 1.12 | 1.11 | 0.892 | 0.81 | 0.422 | 0.411 | 0.36 | 0.271 | 0.297 | 0.307 | 0.299 | 0.273 | 0.821 | 0.827 | 0.19 |
| NCI-H460 | 1.04 | 1.17 | 0.604 | 0.795 | 0.49 | 0.464 | 0.44 | 0.511 | 0.574 | 0.722 | 0.452 | 0.512 | 0.0622 | 0.0626 | 0.0647 | 0.0595 | 1.45 | 0.956 | 0.855 |
